In a melting point compilation (Tetko et al.; mined from patent text by program, amines drawn as free bases though some values may be those of a salt) one finds melting point data, which are given here for 87 compounds.

Usually melting point stands for the temperature, or range, at which the solid turns liquid.

Regarding `COC(=O)c1ccc(C2(c3ccc4c(c3)C3(C)C5(C)CCC(C5)C3(C)O4)OCCO2)cc1` (configuration not stated), the melting point fell in the range of 136 to 137 °C.

As for `CCOC(=O)c1c(C(F)(F)F)nc(OC)c(C#N)c1OC`, the melting point was in the range of 32 to 34 °C.

`CC(Cl)CCC(=O)Nc1c(C#N)cnn1-c1ccc(Cl)c(Cl)c1Cl` (configuration not stated) gave a melting point of 126 to 127 °C.

Consider `COC(=O)C(C)c1noc2cc(F)c(N3C(=O)C(C)=C(C)C3=O)cc12` (configuration not stated), for which the melting point fell in the range of 106 to 107 °C.

Regarding `O=C1Nc2ccccc2Oc2c1csc2Cl`, the melting point lay in the range of 224 to 227 °C.

Compound `Nc1nc2ccccc2c2c1nc1n2C(COCc2ccc(F)cc2)COC1` (configuration not stated) displayed a melting point of 134 to 137 °C.

Compound `Cc1oc(-c2cc(C(F)(F)F)cc(C(F)(F)F)c2)nc1COc1cccc(CN(O)C(N)=O)c1` showed a melting point of 150 to 151 °C.

With `CCCCCCCCCCCN=C=S`, the melting point lay in the range of 71 to 72 °C.

`Cc1ncn(Cc2ccc(NC(=O)Nc3ccc(Oc4cc(Cl)ncn4)cc3)cc2C(F)(F)F)c1C` returned a melting point of 195 to 196 °C.

`O=C(Nc1ccc(-n2nc(C(F)(F)F)cc2C(F)(F)F)cc1F)c1ccc(F)cc1F` registered a melting point of 66 to 67 °C.

Turning to `COc1ccc(N2CCN(c3c(C)c(C)c4c(c3C)C(N3CCOCC3)C(C)(C)O4)CC2)cc1` (configuration not stated), the melting point was in the range of 181 to 182 °C.

`O=C(Oc1ccc(OC(=O)c2cc(O)cc(O)c2)c2ccccc12)c1cc(O)cc(O)c1` displayed a melting point of 201 to 203 °C.

`CCOC(=O)c1cnc(OCC)c2c(C)n[nH]c12` returned a melting point of 200 °C.

The compound `COc1ccc(C(=O)N[C@@H](CNC(=O)c2ccc(C)cc2)c2ccccc2)cc1` gave a melting point of 230 to 238 °C.

Compound `Cc1cc2c(c(C)n1)c(=O)oc1ccccc12` registered a melting point of 194 to 197 °C.

`CC(C)(C)OC(=O)c1cccc(-c2ccc([N+](=O)[O-])cc2)c1` displayed a melting point of 110 to 111 °C.

As for `CC(C)(C)c1ccc(SN2CCOC2=O)cc1`, the melting point was 76 to 81 °C.

`O=C(Nc1ccc2[nH]ncc2c1)O[C@@H](c1cc(F)cc(Cl)c1)[C@H]1CCCCN1` gave a melting point of 220 °C.

`NC(=O)CCCCCc1nccc(NC(N)=NCC(F)(F)F)n1`: the melting point fell in the range of 179 to 181 °C.

The compound `CC(O)Cc1cc2c3ccccc3[nH]c(=O)n2n1` (configuration not stated) came in with a melting point of 228 to 229 °C.

Consider `CN(CCCNC(=O)c1c(Cl)ccc2nc3ccccc3nc12)CCCNC(=O)c1c(Cl)ccc2nc3ccccc3nc12`, for which the melting point was in the range of 206 to 207 °C.

For `CN(C)S(=O)(=O)n1cnc(S(=O)(=O)NCc2ccc(Cl)cc2)c1`, the melting point was 171 to 173 °C.

`COc1cc2c(cc1Nc1ncc(C(F)(F)F)c(Nc3ccc(N4CCOCC4)cc3OC)n1)N(C)C(=O)OCC2` yielded a melting point of 221 to 223 °C.

Compound `COc1cccc([C@H]2O[C@H](CC(=O)NCCCCCC(=O)O)C(=O)N(CC(C)(C)CO)c3ccc(Cl)cc32)c1OC` displayed a melting point of 96 to 98 °C.

`CC(=O)C=Cc1cc2ccccc2o1`: the melting point was 100 to 101 °C.

Turning to `O=C(NCc1ccc(Cl)cc1)c1cnc2c(F)c(Oc3ccc(CO)cc3)c(F)cc2c1O`, the melting point lay in the range of 235 to 240 °C.

Consider `O=c1[nH]c2cc(Cl)c([N+](=O)[O-])cc2n(C2CCCCC2)c1=O`, for which the melting point was > 300 °C.

`CCOC(=O)c1cnc2c(SSc3ccccc3[N+](=O)[O-])cccn2c1=O`: the melting point fell in the range of 191 to 193 °C.

The compound `CC1(C)C(=O)NCCN1C(=O)C(N)Cc1ccccc1` (configuration not stated) returned a melting point of 70 to 73 °C.

Turning to `CCc1nc2c(N)nc3ccccc3c2n1CCOCCN`, the melting point was in the range of 144 to 146 °C.

Turning to `O=C(CNc1ccc(F)cc1)Nc1c(Cl)ccc2nc(N3CC[C@@H](O)C3)ccc12`, the melting point was in the range of 242 to 246 °C.

The compound `CC(C)(C)c1ccc(S(=O)(=O)Nc2nc(-c3ncccn3)nc(Cl)c2-c2cccs2)cc1` displayed a melting point of 130 to 132 °C.

Compound `CC(C)(CO)NS(=O)(=O)c1ccc(Cl)s1` gave a melting point of 112 °C.

Compound `CCOC(=O)c1cn(-c2c(F)cc(F)c([N+](=O)[O-])c2F)c2c(Cl)c(F)c(F)cc2c1=O` had a melting point of 167 to 169 °C.

For `NC(=O)N(O)Cc1ccc(Oc2ccc(-n3ccnc3)cc2)s1`, the melting point is 141 °C.

Take `O=[N+]([O-])c1cccc2cc(-c3ccccn3)[nH]c12`: the melting point was in the range of 162 to 163 °C.

Consider `CC(C)(CCCCOc1cc(-c2ccccc2)cc(-c2ccccc2)n1)c1nnn[nH]1`, for which the melting point fell in the range of 160 to 162 °C.

Turning to `CCOC(=O)C1=C(c2ccccc2)Nc2n[nH]cc2C1c1cccc(Cl)c1Cl` (configuration not stated), the melting point is 214 °C.

`CCOC(=O)c1nocc1O`: the melting point was in the range of 59 to 60 °C.

As to `CC(C)(C)c1cc(C[C@@H]2N[C@@H](c3ccccc3)[C@@H](c3ccccc3)OC2=O)ccc1O`, the melting point lay within 76 to 80 °C.

The compound `CN1C(=O)C2(COc3cc4c(cc32)OCCO4)c2c(-c3cnn(C)c3)cccc21` (configuration not stated) returned a melting point of 220 to 222 °C.

On to `NC(=O)c1cc(Oc2ccc(Cl)c(Cl)c2)cnc1O`, for which the melting point was 246 to 249 °C.

Consider `O=C1Nc2cccnc2N(C(=O)NCCN2CCC(CN3CCCCC3)C2)c2ccccc21` (configuration not stated), for which the melting point was in the range of 168 to 169 °C.

`CCOC(=O)c1cn(C2CC2)c2c(OC)c(F)c(F)cc2c1=O` showed a melting point of 178 to 180 °C.

`O=c1[nH]nc(C(F)(F)F)s1` returned a melting point of 54 to 55 °C.

As to `CCCC(CCC)(CCC(N)=S)C(CCC)(CCC)C(N)=S`, the melting point was 87 to 88 °C.

As for `CCC(O)(CC(N)=O)c1ccc(Cl)c(Cl)c1` (configuration not stated), the melting point was in the range of 99 to 100 °C.

For `CCCCCCCCOC(=O)C=Cc1ccc(N(C)C)cc1`, the melting point was 48 to 49.5 °C.

Compound `Nc1cccc2c3c([nH]c12)C(=O)CCC3` showed a melting point of 233 to 234 °C.

In the case of `CCCn1cnc2c1c(=O)n(CC(C)(O)C#CCN(CC)CC)c(=O)n2C` (configuration not stated), the melting point was found to be 109 °C.

`O=c1[nH]c2ncc(-c3ccc(O)cc3)nc2n1CCC1CCOCC1` had a melting point of 276 to 277 °C.

In turn, `O=C(Nc1ccc(Cl)cc1)NS(=O)(=O)c1ccc2c(c1)CCCC2` displayed a melting point of 163 to 165 °C.

`NC(=O)c1ccc2c(c1)C(=O)C1(CC1)O2` came in with a melting point of 243 to 244 °C.

Compound `CN(C)C(=O)C1(C)CN(C(=O)Nc2ccc(Cl)cc2)N=C1c1ccc(Cl)cc1` (configuration not stated) displayed a melting point of 194 to 197 °C.

With `CCCc1c(OCCCOc2ccc(C(=O)NCCCCc3cccnc3)cc2)ccc(C(C)=O)c1O`, the melting point fell in the range of 133 to 134 °C.

The compound `COc1ccc(-c2cnc(N)c(Sc3ccccc3)n2)cc1` showed a melting point of 89 to 90 °C.

In turn, `COCCOc1cc2nccc(Oc3cccc(O)c3)c2cc1C#N` showed a melting point of 159 to 163 °C.

As to `COc1cc(C(=O)O)c2oc(-c3ccc(OC)c(F)c3)cc2c1`, the melting point was in the range of 254 to 256 °C.

Consider `C#CCOc1ccccc1-n1cnc2cc(N)ccc21`, for which the melting point fell in the range of 40 to 42 °C.

In turn, `CCN(CC)Cc1cc(NC(=O)Nc2ccc(Oc3cc(NC)ncn3)cc2)cc(C(F)(F)F)c1` showed a melting point of 68 to 70 °C.

As to `Cc1cc(-c2ccc(S(C)(=O)=O)cc2)n(-c2ccc(-c3ccoc3)cc2)c1C`, the melting point was in the range of 215 to 219 °C.

Compound `O=[N+]([O-])c1cc(Cl)c(OCc2ccccc2-c2ccccc2)c(Cl)c1` gave a melting point of 83 to 84.5 °C.

`O=C(O)c1cn(C2CC2)c2nc3cc(N4CCNC(c5ccco5)C4)c(F)cc3cc2c1=O` (racemic) yielded a melting point of 240 to 241 °C.

Turning to `O=C(CN1C(=O)c2ccccc2C1=O)Nc1cccc(OC(F)(F)F)c1`, the melting point is 170 °C.

`Cc1c(F)cc(C(=O)NC(C)C(C)C)cc1-c1ccc(C(=O)NCC(C)(C)C)cc1C(=O)Nc1nccs1` (configuration not stated) returned a melting point of 234 to 239 °C.

As to `NS(=O)(=O)c1cc2c(s1)CNCC2`, the melting point was 172 to 175 °C.

Regarding `CCN1CC[C@@H]2CC(=O)c3cc(F)ccc3[C@@H]2C1` (relative stereo), the melting point was > 220 °C.

Regarding `CC(C)(CCCC(=O)O)c1cc(C(=O)O)c(O)c(C(C)(C)CCCC(=O)O)c1`, the melting point fell in the range of 161 to 163 °C.

Regarding `CON=C1CCC(C)(C)c2cc(C)c(-c3cc(C=C4SC(=O)NC4=O)ccc3Cl)cc21`, the melting point was 252 to 254 °C.

Take `CN1C(=O)C(=O)c2cnccc21`: the melting point was 140 to 142 °C.

In the case of `COc1cc2ncc(C(N)=O)c(Nc3cccc(Br)c3)c2cc1OC`, the melting point was 239 to 242 °C.

`CCOC(=O)c1nc2n(n1)-c1sc(C)c(C)c1C(c1ccccc1)=NC2` came in with a melting point of 173 to 174 °C.

`CC(=O)OC1Oc2ccc(C#N)cc2C1(C)C` (configuration not stated): the melting point was in the range of 138 to 140 °C.

Consider `CC(C)(C)OC(=O)CN(C(=O)OC(C)(C)C)[C@H](CC1CCCCC1)C(=O)N1CCC[C@H]1C(=O)NC1CCc2nc(N)sc2C1` (some centres not stated), for which the melting point lay in the range of 95 to 101 °C.

Take `CCOC(=O)c1sc2c(Br)cccc2c1C`: the melting point was 67 to 70 °C.

Take `O=C(NCCc1ccc(Cl)cc1)c1ncccc1O`: the melting point is 91 to 93 °C.

As for `COc1ccc(OC)c2c1C(=O)C=C(SCCCCO)C2=O`, the melting point was in the range of 122 to 123 °C.

In turn, `Nc1cccc(NC(=O)OCc2cc3cc(-c4ccc(F)cc4)ccc3o2)c1C(=O)O` came in with a melting point of 176 to 178 °C.

For `CCCC(=O)Nc1n[nH]c2c(F)c(N3CCOCC3)c(Br)cc12`, the melting point turned out to be 240 °C.

`CC(Cc1c[nH]c2ccccc12)(NC(=O)OCC1c2ccccc2-c2ccccc21)C(=O)NCCc1ccccc1` (configuration not stated) had a melting point of 179 to 181 °C.

For `CN(C)CC1CCCN(c2cc3ccccc3c(=O)[nH]2)C1` (configuration not stated), the melting point was in the range of 141 to 143 °C.

Compound `COC(=O)CCCc1cc2cc(Cl)ccc2n1S(=O)(=O)c1ccc2c(c1)CCC(C)(C)O2` displayed a melting point of 126 to 129 °C.

`CC(C)c1nn(-c2ccc(Br)cn2)cc1CCCO`: the melting point fell in the range of 96 to 97 °C.

Consider `CCn1ncnc1COc1nn2c(-c3ccccc3F)nncc2c1C(C)(C)CC`, for which the melting point fell in the range of 89 to 92 °C.

`CN(Cc1cccc(-c2ccc(CC3SC(=O)NC3=O)cc2)c1)C(=O)c1ccc2cc(O)ccc2c1` (configuration not stated): the melting point turned out to be 218 °C.

The compound `CCCc1cc(O)nc(-c2ccncc2)n1` had a melting point of 173 to 174 °C.

Regarding `CCc1c(C(=O)O)c(CC(=O)O)n(C)c1C(=O)c1ccc(Cl)cc1`, the melting point lay within 211 to 212 °C.
